Entries after “also recorded” stand apart in the source; their conditions may differ. Marks after values point to notes of the source that are not given here.
Assays:
[1] = tested on: Landrace x Large White reserve sows; test: B-Scan ultrasonic monitoring of follicles: ovulation time and ovarian cyst in gilts (Example 2); format: in vivo, pigs
Description: Landrace x Large White reserve sows, about 230 days old, were randomly divided into a batch farrowing with FTAI and batch farrowing with FTAI combined with different doses of 1-[bis(4-cyanophenyl)methyl]-1,2,4-triazole groups, and during the experiment, the experimental sows in each group were fed regularly and gained free access to water according to the requirements of feeding management in the farm.
Referring to the dosage of 1-[bis(4-cyanophenyl)methyl]-1,2,4-triazole in clinical medicine and using standard weight-dosage conversion, the recommended dosage of 1-[bis(4-cyanophenyl)methyl]-1,2,4-triazole for sows was 50-150 μg/kg·BW/day, orally for consecutive 5 days, as derived by conversion. In addition, the applicant previously studied uniparous cows, and in the ovulation induction scheme, the reference dosage of 1-[bis(4-cyanophenyl)methyl]-1,2,4-triazole was 60-200 μg/kg·BW, administered in a single dose; furthermore, by means of conversion in conjunction with the dosage for model animals (mice) previously in the laboratory, various dosages were designed. The treatment methods of hormones and drugs for sows in each group were as follows: • batch farrowing with FTAI: the sows were fed with an altrenogest oral solution at 20 mg/animal at the same time every day, for 18 days; PMSG at 1000 IU/animal was injected intramuscularly 42 h after the last feeding with altrenogest, GnRH at 100 μg/animal was injected intramuscularly 80 h after the injection of PMSG, a first timed insemination was performed 24 h after the injection of GnRH, and a second timed insemination was performed 16 h after the first insemination.
Treatment group 1: the hormone treatment and mating schemes for gilts were the same as FTAI. The difference lay in that PMSG at 1000 IU/gilt was injected intramuscularly 42 h after the last feeding with altrenogest, and 1-[bis(4-cyanophenyl)methyl]-1,2,4-triazole at 12 μg/kg·BW/day was administered orally 8 h after the injection of PMSG, for 1 day.
Treatment group 2: the hormone treatment and mating schemes for gilts were the same as FTAI. The difference lay in that PMSG at 1000 IU/gilt was injected intramuscularly 42 h after the last feeding with altrenogest, and 1-[bis(4-cyanophenyl)methyl]-1,2,4-triazole at 12 μg/kg·BW/day was administered orally 8 h after the injection of PMSG, for 2 days.
Treatment group 3: the hormone treatment and mating schemes for gilts were the same as FTAI. The difference lay in that PMSG at 1000 IU/gilt was injected intramuscularly 42 h after the last feeding with altrenogest, and 1-[bis(4-cyanophenyl)methyl]-1,2,4-triazole at 20 μg/kg·BW/day was administered orally 8 h after the injection of PMSG, for 1 day.
Treatment group 4: the hormone treatment and mating schemes for sows were the same as FTAI. The difference lay in that PMSG at 1000 IU/gilt was injected intramuscularly 42 h after the last feeding with altrenogest, and 1-[bis (4-cyanophenyl)methyl]-1,2,4-triazole at 20 μg/kg·BW/day was administered orally 8 h after the injection of PMSG, for 2 days.
Treatment group 5: the hormone treatment and mating schemes for gilts were the same as FTAI. The difference lay in that PMSG at 1000 IU/animal was injected intramuscularly 42 h after the last feeding with altrenogest, and 1-[bis(4-cyanophenyl)methyl]-1,2,4-triazole at 20 μg/kg·BW/day was administered orally 8 h after the injection of PMSG, for 3 days.
Treatment group 6: the hormone treatment and mating schemes for gilts were the same as FTAI. The difference lay in that PMSG at 1000 IU/animal was injected intramuscularly 42 h after the last feeding with altrenogest, and 1-[bis(4-cyanophenyl)methyl]-1,2,4-triazole at 20 μg/kg·BW/day was administered orally 8 h after the injection of PMSG, for 5 days.
Treatment group 7: the hormone treatment and mating schemes for gilts were the same as FTAI. […]

[2] = tested on: Landrace x Large White binary sows; test: Number of ovulated oocytes (corpora lutea) in gilts slaughtered 16 days after mating (Example 4); format: in vivo, pigs; settings: single low dose 12 μg/kg·BW, compared with batch farrowing with FTAI
Description: The breed of the gilts used in this experiment was Landrace x Large White binary sows, the gilts were randomly divided into the following 3 groups, and the treatment method for each group was as follows:
batch farrowing with FTAI: the gilts were fed with an altrenogest oral solution at 20 mg/gilt at the same time every day, for 18 days; PMSG at 1000 IU/gilt was injected intramuscularly 42 h after the last feeding with altrenogest, GnRH at 100 μg/gilt was injected intramuscularly after another 80 h, the first timed insemination was performed 24 h after the injection of GnRH, and the second timed insemination was performed after 24 h.
Treatment group 1 (batch farrowing with FTAI, with supplementing with 1-[bis(4-cyanophenyl)methyl]-1,2,4-triazole (12 μg/kg·BW, orally in a single dose): The hormone treatment and mating schemes for gilts were the same as those for gilts in the batch farrowing with FTAI. The gilts were administered orally once with 1-[bis(4-cyanophenyl)methyl]-1,2,4-triazole at 12 μg/kg·BW 8 h after the injection of PMSG.
The gilts in the batch farrowing with FTAI and the gilts in the batch farrowing with FTAI supplementing once with 1-[bis(4-cyanophenyl)methyl]-1,2,4-triazole (12 μg/kg·BW) were slaughtered. The gilts were slaughtered 16 days after mating, with 4 gilts slaughtered per group. […]

[3] = 80 and 160 μg/kg·BW/day for 5 consecutive days (treatment groups 9 and 10)
[4] = Example 2 Treatment group 1: 12 μg/kg·BW/day orally, 1 day, gilts
[5] = Example 2 Treatment group 2: 12 μg/kg·BW/day orally, 2 days, gilts
[6] = Example 2 Treatment group 3: 20 μg/kg·BW/day orally, 1 day, gilts
[7] = Example 2 Treatment group 4: 20 μg/kg·BW/day orally, 2 days, gilts
[8] = Example 2 Treatment group 5: 20 μg/kg·BW/day orally, 3 days, gilts
[9] = Example 2 Treatment group 6: 20 μg/kg·BW/day orally, 5 days, gilts
[10] = Example 2 Treatment group 7: 40 μg/kg·BW/day orally, 1 day, gilts
[11] = Example 2 Treatment group 8: 40 μg/kg·BW/day orally, 5 days, gilts
[12] = Example 2 Treatment group 9: 80 μg/kg·BW/day orally, 5 days, gilts
[13] = Example 2 Treatment group 10: 160 μg/kg·BW/day orally, 5 days, gilts
[14] = gilts, with the increase of the dosage
[15] = low-dose, batch farrowing with FTAI

## N#Cc1ccc(C(c2ccc(C#N)cc2)n2cncn2)cc1 [1-[bis(4-cyanophenyl)methyl]-1,2,4-triazole]
[1]; [3]
  ovarian cyst: had a cyst problem
  ovulation for 10 days after stopping taking altrenogest: did not ovulate
[1]; [4]
  Cyst ratio (%): 0.00^b %
  Interval from stopping taking Altrenogest to ovulation (h): 170.13 ± 3.87^a h
  Number of animals with ovarian cyst: 0
  Number of animals with ovulation: 27
[1]; [5]
  Cyst ratio (%): 0.00^b %
  Interval from stopping taking Altrenogest to ovulation (h): 172.15 ± 3.34^a h
  Number of animals with ovarian cyst: 0
  Number of animals with ovulation: 23
[1]; [6]
  Cyst ratio (%): 0.00^b %
  Interval from stopping taking Altrenogest to ovulation (h): 169.57 ± 2.19^a h
  Number of animals with ovarian cyst: 0
  Number of animals with ovulation: 22
[1]; [7]
  Cyst ratio (%): 0.00^b %
  Interval from stopping taking Altrenogest to ovulation (h): 194.25 ± 2.96^b h
  Number of animals with ovarian cyst: 0
  Number of animals with ovulation: 21
[1]; [8]
  Cyst ratio (%): 11.53^c %
  Interval from stopping taking Altrenogest to ovulation (h): 177.79 ± 4.75^a h
  Number of animals with ovarian cyst: 3
  Number of animals with ovulation: 24
[1]; [9]
  Cyst ratio (%): 15.38^c %
  Interval from stopping taking Altrenogest to ovulation (h): 187.67 ± 3.69^b h
  Number of animals with ovarian cyst: 4
  Number of animals with ovulation: 20
[1]; [10]
  Cyst ratio (%): 11.53^c %
  Interval from stopping taking Altrenogest to ovulation (h): 191.50 ± 5.74^b h
  Number of animals with ovarian cyst: 3
  Number of animals with ovulation: 22
[1]; [11]
  Cyst ratio (%): 79.17^c %
  Interval from stopping taking Altrenogest to ovulation (h): 210.00 ± 2.65^b h
  Number of animals with ovarian cyst: 19
  Number of animals with ovulation: 4
[1]; [12]
  Cyst ratio (%): 100.00^c %
  Number of animals with ovarian cyst: 24
  Number of animals with ovulation: 0
[1]; [13]
  Cyst ratio (%): 100.00^c %
  Number of animals with ovarian cyst: 24
  Number of animals with ovulation: 0
[1]; gilts, treatment groups 1, 2, 3, and 5, compared with batch farrowing with FTAI
  ovulation time: no significant difference
[1]; [14]
  number of ovarian cysts: increased
  time from stopping taking altrenogest to ovulation: prolonged
[1]; high-dose
  ovarian cysts: caused ovarian cysts
  ovulation in sows: inhibited
[1]; [15]
  ovarian cyst: no ovarian cyst was caused
  ovulation time: no significant change
[1]; sows, high-dose 80 μg/kg·BW (FIG. 5)
  ovarian cyst, B-scan ultrasonic inspection: presented as cyst; also recorded: ovarian cyst is presented
[1]; sows, high-dose 80 μg/kg·BW (FIG. 5), day 10 after stopping altrenogest
  ovulation, B-scan ultrasonic inspection: no ovulation was observed
[1]; sows, low-dose 12 μg/kg·BW (FIG. 4)
  ovulation, B-scan ultrasonic inspection: ovulate normally
[2]
  number of ovulated oocytes: no significant effect
